{
  "source": "paper PMC3996151",
  "about": "“Safety and pharmacological characterization of the molecular tweezer CLR01 – a broad-spectrum inhibitor of amyloid proteins’ toxicity” (BMC Pharmacology & Toxicology, 2014)",
  "key": {"[1]": {"parameters": "method as in PMID 21916458, PMID 16218636", "conditions": "cited from earlier work"}, "[2]": {"parameters": "method as in Lopes et al., submitted", "conditions": "SC pumps; ref Lopes et al., submitted; cited from earlier work"}, "3×Tg mouse model of AD": {"test_system": "3×Tg mouse model of AD", "parameters": "method as in PMID 23183235", "conditions": "cited from earlier work"}, "[3]": {"test": "Solubility in aqueous solutions", "type": "physicochemical"}, "[4]": {"parameters": "method as in PMID 23183235", "conditions": "human plasma; cited from earlier work"}, "[5]": {"test": "Blood-brain barrier permeability with 3H-CLR01 IV (scintillation counting of blood and brain)", "type": "in vivo, mouse", "conditions": "for Blood radioactivity levels, % of the injected levels: 0.5 h following IV injection; for Brain radioactivity after double injection compared to one injection: two 11.86-μg/g injections", "description": "The following groups of mice were used for CLR01 BBB penetration studies: 3×Tg and the corresponding WT mice at 2-m, 12-m, and 22 - 24-m (hereafter referred to as 22-m) of age. The groups were: 2-m WT, 2-m Tg, 12-m WT, 12-m Tg, 22-m WT, 22-m Tg. Mice were administered ^3H-CLR01 intravenously. Two μCi per gram of mouse body weight, which are equal to 11.86 μg/g of CLR01 in which ^3H-CLR01 made up 10% of the total CLR01, were injected into the jugular vein. Blood and brain were collected at 0.5, 1, 3, 8, 24, or 72 h (not all time points were collected for all groups, see the Results section). For times ≤ 3 h, mice were anesthetized by IP injection of ketamine and xylazine. The mice remained anesthetized following the injection until the specified time point, at which point they were given a lethal dose of pentobarbital. Then, blood was collected via a cardiac puncture, and the brain harvested with or without a perfusion step Pharmacokinetics of CLR01 in vivo. For time points 8–72 h, mice were not anesthetized and ^3H-CLR01 was injected into the tail vein. This change was due to the difficulty of keeping mice anesthetized for longer than 3 h. No differences were observed between mice given anesthesia and jugular vein injections and mice receiving tail vein injections.\nEuthanasia procedures were the same as described above. For all mice, one hemisphere of the brain and 100–350 μl of blood were separately digested following instructions from Perkin-Elmer (document: Scintillation Cocktails and Consumables) with 1 ml Solvable (Perkin-Elmer, Waltham, MA), added to Ultima Gold Liquid Scintillation Cocktail (Perkin-Elmer) and read in a Triathler Liquid Scintillation Counter model 425–034, (Hidex, Turku, Finland). Brain permeability percentage was calculated as counts per minute (CPM) per g of brain relative to CPM per ml of blood. The data are an average of values from three mice per genotype/age/time combination.\nFor CLR01 transport-saturation studies using 5× the CLR01 dose, ^3H-CLR01 was kept at 10% of the total CLR01 mixture and a total of 59.3 μg of CLR01 (10 μCi) per g of mouse body weight was injected IV (22-m WT 5× dose). For CLR01 brain-accumulation studies, two 11.86-μg/g injections were administered at equal time intervals (22-m WT 2× inj). In these experiments, mice were injected at time = 0 and at t = ½ of euthanasia time. For example, in the original, single-injection experiments, a mouse would receive an injection at t = 0 and then be euthanized at t = 1 h. In this experiment, a mouse received one injection at t = 0, a second injection at t = 0.5 h, and then was euthanized at t = 1 h.\nIn experiments using ^3H-CLR01, urine was collected when possible over the period between injection and euthanasia. […] We could not normalize the radioactivity because the amount of urine in the bladder prior to injection and the volume produced during the experiment could not be calculated.\nTo correct for the radioactivity associated with blood-borne ^3H-CLR01 in the brain vasculature, we performed both perfusion and subtraction analyses. In perfusion experiments, WT and 3×Tg mice at each of the three ages analyzed (n = 3 per group) were perfused with phosphate buffered saline following euthanasia. Perfusion lasted for either 5 min or until the liver changed color from a red to yellow, whichever was longer. In other experiments, mice were not perfused, but radioactivity associated with 10 μl of blood per g of brain [29, 30] was calculated based on brain weight and blood radioactivity levels and subtracted from brain radioactivity levels. At 1 h post injection, perfusion-corrected brain values were statistically similar to subtraction-corrected brain values (Figure 5). […]"}, "transthyretin": {"test_system": "transthyretin", "parameters": "method as in PMID 24459092", "conditions": "peripheral administration, 1.2 mg/kg/day; cited from earlier work"}},
  "note": "Several values for one entry are separate records, joined by “and”; a condition that tells them apart may be missing. Equal entries are not always repeated.",
  "data": [
    {"smiles": "O=P(O)(O)Oc1c2c(c(OP(=O)(O)O)c3c1C1CC3c3cc4c(cc31)C1CC4c3ccccc31)C1CC2c2cc3c(cc21)C1CC3c2ccccc21", "note": "[CLR01]", "values": [
      {"measurement": "Affinity for Lys residues", "setting": "[1]", "result": "low micromolar affinity"},
      {"measurement": "Administered CLR01 in the blood at steady-state", "setting": "[2]", "result": 0.7, "unit": "%"},
      {"measurement": "Effect on AD-like brain pathology", "setting": "3×Tg mouse model of AD; SC, 40 μg/kg/day", "result": "significant decrease in amyloid plaque burden and hyperphosphorylated tau"},
      {"measurement": "Effect on APP processing", "setting": "3×Tg mouse model of AD; treated AD mice", "result": "did not affect processing of amyloid β-protein precursor (APP)"},
      {"measurement": "Solubility in aqueous solutions", "setting": "[3]", "result": "soluble at millimolar concentrations"},
      {"measurement": "Stability", "setting": "[4]", "result": 100, "unit": "%"},
      {"measurement": "Brain radioactivity levels over time", "setting": "[5]; 0.5 - 72 h post-injection, IV", "result": "did not change significantly up to 72 h post-injection"},
      {"measurement": "Brain penetration, % of blood", "setting": "[5]; 1× CLR01 dose, 1 h, 22-m old WT mice", "result": "0.86 ± 0.30", "unit": "%"},
      {"measurement": "Brain penetration, % of blood", "setting": "[5]; 5× CLR01 dose (59.3 μg/g), 1 h, 22-m old WT mice", "result": "0.97 ± 0.28", "unit": "%"},
      {"measurement": "Absolute amount of radioactivity in the brain relative to 1× dose", "setting": "[5]; 5× CLR01 dose, 22-m old WT mice, on average", "result": 5, "unit": "times"},
      {"measurement": "Blood radioactivity levels, % of the injected levels", "setting": "[5]; 12-m old 3×Tg mice", "result": "40 ± 6", "unit": "%"},
      {"measurement": "Blood radioactivity levels, % of the injected levels", "setting": "[5]; 12-m old WT mice", "result": "39 ± 13", "unit": "%"},
      {"measurement": "Brain radioactivity after double injection compared to one injection", "setting": "[5]; 1 h, 22-m old WT mice", "result": 3.3, "unit": "×"},
      {"measurement": "Brain-radioactivity levels as a percentage of blood-radioactivity levels (CPM/g)/(CPM/ml)", "setting": "[5]; 1 h following IV injection, 2-m old 3×Tg mice", "result": "3.09 ± 0.55", "unit": "%"},
      {"measurement": "Brain-radioactivity levels as a percentage of blood-radioactivity levels (CPM/g)/(CPM/ml)", "setting": "[5]; 1 h following IV injection, 2-m old WT mice", "result": "2.68 ± 0.31", "unit": "%"},
      {"measurement": "Brain-radioactivity levels as a percentage of blood-radioactivity levels (CPM/g)/(CPM/ml)", "setting": "[5]; 1 h following IV injection, 12-m old 3×Tg mice", "result": "1.43 ± 0.17", "unit": "%"},
      {"measurement": "Brain-radioactivity levels as a percentage of blood-radioactivity levels (CPM/g)/(CPM/ml)", "setting": "[5]; 1 h following IV injection, 12-m old WT mice", "result": "2.11 ± 0.69", "unit": "%"},
      {"measurement": "Brain-radioactivity levels as a percentage of blood-radioactivity levels (CPM/g)/(CPM/ml)", "setting": "[5]; 1 h following IV injection, 24-m old 3×Tg mice", "result": "1.45 ± 0.28", "unit": "%"},
      {"measurement": "Brain-radioactivity levels as a percentage of blood-radioactivity levels (CPM/g)/(CPM/ml)", "setting": "[5]; 1 h following IV injection, 24-m old WT mice", "result": "0.86 ± 0.17", "unit": "%"},
      {"measurement": "Brain-radioactivity levels as a percentage of blood-radioactivity levels, over all groups", "setting": "[5]; 1 h following IV injection, depending on age and genotype (WT versus 3×Tg)", "result": "0.86–3.09% and 1 - 3% and ~ 2%"},
      {"measurement": "Brain radioactivity after double injection compared to one injection", "setting": "[5]; 3 h, 22-m old WT mice", "result": 1.6, "unit": "×"},
      {"measurement": "Brain radioactivity after double injection compared to one injection", "setting": "[5]; 8 h, 22-m old WT mice", "result": 1.9, "unit": "×"},
      {"measurement": "Radioactivity observed at 0.5 h remaining in the blood", "setting": "[5]; after 8 h, IV", "result": "5 - 10%"},
      {"measurement": "Brain CLR01 radioactivity levels per g of brain, most group × time combinations", "setting": "[5]; single IV injection 11.86 μg/g", "result": "10,000 - 20,000 CPM/g"},
      {"measurement": "Route of excretion (urine radioactivity, qualitative)", "setting": "[5]; urine collected between injection and euthanasia", "result": "excreted through the urine"},
      {"measurement": "Effect on transthyretin pathology", "setting": "transthyretin", "result": "significant decrease in transthyretin deposition"}
    ]}
  ]
}
